We go through 27 molecules from US9561231B2 (AbbVie Inc., priority 2012, dated 2017).

The target in assay [1] is T1, first (BD1: amino acids K57-E168) bromodomain of BRD4 (Homo sapiens, UniProt O60885).
T1 construct: His-tagged first (BD1: amino acids K57-E168)
The experiment in a line: TR-FRET bromodomain binding assay, BRD4 BD1. As to conditions: Ki calculated from IC50, probe Kd and probe concentration, read-out: TR-FRET Binding Ki: BRD4 (BDI_K57-E168). The essentials: (§1)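 Displacement of Alexa647-labeled BET-inhibitor probe from His-tagged bromodomain, TR-FRET read-out; buffer 20 mM Na phosphate pH 6.0, 50 mM NaCl, 0.01% Triton X-100. IC50 by 4PL fit; Ki calculated from IC50, probe Kd and probe concentration.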

For assay [2], the target named is T2, second (BD2: amino acids E352-E168) bromodomain of BRD4 (Homo sapiens, UniProt O60885).
T2 construct: protocol
The experiment in a line: TR-FRET bromodomain binding assay, BRD4 BD2. As to conditions: Ki calculated from IC50, probe Kd and probe concentration, read-out: TR-FRET Binding Ki: BRD4 (BDII_E352-M457). In outline:
as §1

Assay [3] has as its system breast cancer cell line MX-1. The experiment in a line: MX-1 cell line proliferation assay (3-day). Format: cell-based. As to conditions: MX-1 cells, Cell Titer Glo, read-out: Cellular proliferation: EC50. The method, then:
The impact of compounds of the Examples on cancer cell proliferation was determined using the breast cancer cell line MX-1 (ATCC) in a 3-day proliferation assay. MX-1 cells were maintained in RPMI supplemented with 10% FBS at 37° C. and an atmosphere of 5% CO2. For compound testing, MX-1 cells were plated in 96-well black bottom plates at a density of 5000 cells/well in 90 μL of culture media and incubated at 37° overnight to allow cell adhesion and spreading. Compound dilution series were prepared in DMSO via a 3-fold serial dilution from 3 mM to 0.1 μM. The DMSO dilution series were then diluted 1:100 in phosphate buffered saline, and 10 μL of the resulted solution were added to the appropriate wells of the MX-1 cell plate. The final compound concentrations in the wells were 3, 1, 0.3, 0.1, 0.03, 0.01, 0.003, 0.001, 0.0003 and 0.0001 μM.
Luminescence readings from the Cell Titer Glo assay were normalized to the DMSO treated cells and analyzed using the GraphPad Prism software with sigmoidal curve fitting to obtain EC50s.

The mark [4] stands for this setting: TR-FRET assay protocol (D, E or G) per compound.
The mark [5] stands for this setting: TR-FRET assay protocol (A-G, compound concentration range).
Where [6] appears, read: Homo sapiens, MX1, 72 h incubation.

Like-named read-outs stand apart in the source and are kept apart here.

`CCOc1cc(=O)n(C)cc1-c1cc(C(C)(C)S(=O)(=O)CC)ccc1Oc1ccc(F)cc1F` [Example 380, 5-{2-(2,4-difluorophenoxy)-5-[2-(ethylsulfonyl)propan-2-yl]phenyl}-4-ethoxy-1-methylpyridin-2(1H)-one]: the Ki (usually the dissociation constant of the complex between target and ligand, obtained from inhibition or displacement) in assay [1] (setting [4]) was 14.3 nM; in assay [2] (setting [4]) it was 3.88 nM. The EC50 in assay [3] (Homo sapiens, MX1, 72 hours with compound) was found to be 38.4 nM.
Turning to `CCOC(=O)Nc1ccc(Oc2ccccc2)c(-c2nn(C)c(=O)cc2OC)c1` [Example 29, ethyl[3-(4-methoxy-1-methyl-6-oxo-1,6-dihydropyridazin-3-yl)-4-phenoxyphenyl]carbamate], the values for the inhibitory constant (Ki) in assay [1] (setting [5]) and in assay [2] (setting [5]) were 1370 nM and 950 nM, respectively. For the same molecule, in assay [3] (setting [6]), the EC50 was 4530 nM.
Regarding `Cn1nc(-c2ccccc2Oc2ccccc2)c(-c2ccc(S(N)(=O)=O)cc2)cc1=O` [Example 112, 4-[1-methyl-6-oxo-3-(2-phenoxyphenyl)-1,6-dihydropyridazin-4-yl]benzenesulfonamide], the Ki in assay [1] (setting [5]) was 138 nM; in assay [2] (setting [5]) it was 181 nM. Moreover, in assay [3] (setting [6]), the EC50 was 1280 nM.
As to “1-(2-chloro-5-fluorophenyl)-N-[4-(2,4-difluorophenoxy)-3-(4-ethoxy-1-methyl-6-oxo-1,6-dihydropyridin-3-yl)phenyl]methanesulfonamide [Example 350]”, in assay [3] (72 h incubation), the EC50 is 1000 nM.
Take `CCS(=O)(=O)c1ccc(Oc2ccc(F)cc2F)c(-c2cc(=O)n(C)cc2OCC(F)(F)F)c1` [Example 398, 4-[2-(2,4-difluorophenoxy)-5-(ethylsulfonyl)phenyl]-1-methyl-5-(2,2,2-trifluoroethoxy)pyridin-2(1H)-one]: the EC50 in assay [3] (72 hours with compound) worked out at 450 nM.
Still for that read-out and setting: then “N-{4-(4-cyanophenoxy)-3-[1-methyl-6-oxo-4-(2,2,2-trifluoroethoxy)-1,6-dihydropyridin-3-yl]phenyl}ethanesulfonamide [Example 374]”, with 76.1 nM.
Take `COc1cc(=O)n(C)nc1-c1cc(NS(=O)(=O)N(C)C)ccc1Oc1ccccc1` [Example 31, N′-[3-(4-methoxy-1-methyl-6-oxo-1,6-dihydropyridazin-3-yl)-4-phenoxyphenyl]-N,N-dimethylsulfuric diamide]: the Ki in assay [2] (setting [5]) is 46.5 nM. In addition, the EC50 in assay [3] (setting [6]) turned out to be 420 nM.
Regarding “N-[4-(2,4-difluorophenoxy)-3-(4-ethoxy-1-methyl-6-oxo-1,6-dihydropyridin-3-yl)phenyl]-1-phenylmethanesulfonamide [Example 311]”, the EC50 in assay [3] (72 h incubation) stood at 1000 nM.
Turning to `CN1CCN(c2ncc(-c3cc(=O)n(C)nc3-c3ccccc3Oc3ccccc3)cn2)CC1` [Example 188, 2-methyl-5-[2-(4-methylpiperazin-1-yl)pyrimidin-5-yl]-6-(2-phenoxyphenyl)pyridazin-3(2H)-one], the Ki in assay [1] (setting [5]) is 670 nM; in assay [2] (setting [5]), 1130 nM.
The corresponding values for `Cn1nc(-c2ccccc2Oc2ccccc2)c(-c2ccc3scnc3c2)cc1=O` [Example 131, 5-(1,3-benzothiazol-5-yl)-2-methyl-6-(2-phenoxyphenyl)pyridazin-3(2H)-one] are 6390 nM and 410 nM.
Consider `CCOc1cc(=O)n(C)cc1-c1cc(NS(=O)(=O)c2ccc(Cl)cc2Cl)ccc1Oc1ccc(F)cc1F` [Example 417, 2,4-dichloro-N-[4-(2,4-difluorophenoxy)-3-(4-ethoxy-1-methyl-6-oxo-1,6-dihydropyridin-3-yl)phenyl]benzenesulfonamide], for which the Ki in assay [1] (setting [4]) was 259 nM; in assay [2] (setting [4]), 57.1 nM.
As for `Cc1cc(-c2ccc(-c3ccc(=O)n(C)c3)c(OCC3CC3)c2)[nH]n1` [Example 312, 5-[2-(cyclopropylmethoxy)-4-(3-methyl-1H-pyrazol-5-yl)phenyl]-1-methylpyridin-2(1H)-one], the Ki in assay [1] (setting [5]) is 353 nM; in assay [2] (setting [5]), 2150 nM.
The corresponding values for `Cn1nc(-c2ccccc2Oc2ccccc2)c(-c2ccc(C(=O)NC(C)(C)C)cc2)cc1=O` [Example 168, N-tert-butyl-4-[1-methyl-6-oxo-3-(2-phenoxyphenyl)-1,6-dihydropyridazin-4-yl]benzamide] are 1070 nM and 993 nM.
On to `Cn1nc(-c2ccccc2Oc2ccccc2)c(-c2cncc(NCc3ccccc3)c2)cc1=O` [Example 138, 5-[5-(benzylamino)pyridin-3-yl]-2-methyl-6-(2-phenoxyphenyl)pyridazin-3(2H)-one], for which the inhibition constant (Ki) in assay [1] (setting [5]) was 7430 nM; in assay [2] (setting [5]), 3180 nM.
The corresponding values for `Cn1nc(-c2ccccc2Oc2ccccc2)c(-c2ccc(C(=O)NC3CCCCC3)cc2)cc1=O` [Example 185, N-cyclohexyl-4-[1-methyl-6-oxo-3-(2-phenoxyphenyl)-1,6-dihydropyridazin-4-yl]benzamide] are 832 nM and 324 nM.
The corresponding values for `COc1ccc(-c2cc(=O)n(C)nc2-c2ccccc2Oc2ccccc2)c(OC)n1` [Example 125, 5-(2,6-dimethoxypyridin-3-yl)-2-methyl-6-(2-phenoxyphenyl)pyridazin-3(2H)-one] are more than 13000 nM and 16000 nM.
The corresponding values for `Cn1nc(-c2ccccc2Oc2ccccc2)c(-c2ccc(C(O)c3ccccc3)cc2)cc1=O` (centres unmarked) [Example 76, 5-{4-[hydroxy(phenyl)methyl]phenyl}-2-methyl-6-(2-phenoxyphenyl)pyridazin-3(2H)-one] are 755 nM and 1280 nM.
For `COC(C)c1ccc(-c2cc(=O)n(C)nc2-c2ccccc2Oc2ccccc2)cc1` (centres unmarked) [Example 135, 5-[4-(1-methoxyethyl)phenyl]-2-methyl-6-(2-phenoxyphenyl)pyridazin-3(2H)-one], the Ki in assay [1] (setting [5]) is 604 nM; in assay [2] (setting [5]) it was 411 nM.
As for `CCOc1cc(=O)n(C)cc1-c1cc(NS(=O)(=O)c2ccc(S(C)(=O)=O)cc2)ccc1Oc1ccc(F)cc1F` [Example 307, N-[4-(2,4-difluorophenoxy)-3-(4-ethoxy-1-methyl-6-oxo-1,6-dihydropyridin-3-yl)phenyl]-4-(methylsulfonyl)benzenesulfonamide], the Ki in assay [1] (setting [5]) was 94.9 nM; in assay [2] (setting [5]), 41.6 nM.
As to `CCS(=O)(=O)c1ccc(Oc2ccc(F)cc2F)c(-c2cn(C)c(=O)cc2Cl)c1` [Example 382, 4-chloro-5-[2-(2,4-difluorophenoxy)-5-(ethylsulfonyl)phenyl]-1-methylpyridin-2(1H)-one], the Ki in assay [1] (setting [4]) was 317 nM; in assay [2] (setting [4]), 276 nM.
As for `CCNC(=O)c1ccc(-c2cc(=O)n(C)nc2-c2ccccc2Oc2ccccc2)cc1` [Example 202, N-ethyl-4-[1-methyl-6-oxo-3-(2-phenoxyphenyl)-1,6-dihydropyridazin-4-yl]-benzamide], the Ki was 227 nM in assay [1] (setting [5]) and 251 nM in assay [2] (setting [5]).
The corresponding values for `CC(C)Oc1ccc(-c2cc(=O)n(C)nc2-c2ccccc2Oc2ccccc2)cn1` [Example 123, 2-methyl-6-(2-phenoxyphenyl)-5-[6-(propan-2-yloxy)pyridin-3-yl]pyridazin-3(2H)-one] are 7260 nM and 1170 nM.
`Cn1nc(-c2ccccc2Oc2ccccc2)c(-c2ccncc2)cc1=O` [Example 104, 2-methyl-6-(2-phenoxyphenyl)-5-(pyridin-4-yl)pyridazin-3(2H)-one]: the Ki in assay [1] (setting [5]) was 1600 nM; in assay [2] (setting [5]), 562 nM.
Regarding `CCOc1ccc(-c2cc(=O)n(C)nc2-c2ccccc2Oc2ccccc2)cc1` [Example 117, 5-(4-ethoxyphenyl)-2-methyl-6-(2-phenoxyphenyl)pyridazin-3(2H)-one], the inhibition constant Ki in assay [1] (setting [5]) was 1490 nM; in assay [2] (setting [5]) it was 619 nM.
For `Cn1nc(-c2ccccc2Oc2ccccc2)c(-c2ccc(NCCN3CCOCC3)nc2)cc1=O` [Example 162, 2-methyl-5-(6-{[2-(morpholin-4-yl)ethyl]amino}pyridin-3-yl)-6-(2-phenoxyphenyl)pyridazin-3(2H)-one], the Ki is 109 nM in assay [1] (setting [5]) and 75.1 nM in assay [2] (setting [5]).
The corresponding values for `Cn1nc(-c2ccccc2Oc2ccccc2)c(-c2cccc(C(=O)NC3CC3)c2)cc1=O` [Example 177, N-cyclopropyl-3-[1-methyl-6-oxo-3-(2-phenoxyphenyl)-1,6-dihydropyridazin-4-yl]benzamide] are 4170 nM and 1070 nM.
Turning to `CN(C)c1ncc(-c2cc(=O)n(C)nc2-c2ccccc2Oc2ccccc2)cn1` [Example 192, 5-[2-(dimethylamino)pyrimidin-5-yl]-2-methyl-6-(2-phenoxyphenyl)pyridazin-3(2H)-one], the Ki in assay [1] (setting [5]) was 1040 nM; in assay [2] (setting [5]), 395 nM.
